Data taken from US6399654B1, “Biflavanoids and derivatives thereof as antiviral agents” (priority 1995, dated 2002).
pEC50: −log10 of the molar value. Where two headings read alike, the source gives them in different places.

How the values were obtained:
[1] = test system: Influenza A (H1N1) Texas/36/91; assay: microbe, parasite or virus in culture; format: cell-based, influenza A virus; details: Influenza A (H1N1) Texas/36/91
[2] = test system: Influenza A (H1N1) Texas/36/91; assay: microbe, parasite or virus in culture; format: cell-based, influenza A virus; details: Influenza A (H1N1) Texas/36/91; remark: listed apart in the source
[3] = test system: Influenza A (H3N2) Beijing/32/92; assay: microbe, parasite or virus in culture; format: cell-based, influenza A virus; details: Influenza A (H3N2) Beijing/32/92
[4] = test system: Influenza A (H3N2) Beijing/32/92; assay: microbe, parasite or virus in culture; format: cell-based, influenza A virus; details: Influenza A (H3N2) Beijing/32/92; remark: listed apart in the source
[5] = test system: Influenza B Panama/45/90; assay: microbe, parasite or virus in culture; format: cell-based; details: Influenza B Panama/45/90
[6] = test system: Measles Virus; assay: microbe, parasite or virus in culture; format: cell-based; details: Measles Virus
[7] = test system: Measles Virus; assay: Measles virus neutral red dye uptake in BSC-1 cells; format: cell-based
[8] = test system: Adenovirus Type 5; assay: microbe, parasite or virus in culture; format: cell-based
[9] = test system: Adenovirus Type 5; assay: Adenovirus type 5 neutral red dye uptake in A549 cells; format: cell-based; details: Adenovirus Type 5
[10] = test system: Parainfluenza Type 3 Virus; assay: organism not typed; format: cell-based; details: Parainfluenza Type 3 Virus
[11] = test system: Parainfluenza Type 3 Virus; assay: organism not typed; format: cell-based
[12] = test system: Respiratory Syncytial Virus; assay: microbe, parasite or virus in culture; format: cell-based; details: Respiratory Syncytial Virus
[13] = test system: Respiratory Syncytial Virus; assay: microbe, parasite or virus in culture; format: cell-based; details: Respiratory Syncytial Virus; remark: listed apart in the source
[14] = molecular target: T1, HIV-1 RT (Human immunodeficiency virus type 1 group M subtype B, UniProt P03366); assay: Anti-HIV-1 RT assay (recombinant enzyme); format: biochemical; details: for Anti-HIV-1 RT IC50: values in parentheses or in words
T1 construct: made in house; host or cells: Escherichia coli

[15] = test system: Madin Darby canine kidney (MDCK) cells; details: for CPE Inhibition IC50 (50% cell inhibitory (cytotoxic) concentration): Influenza A (H1N1) test
[16] = test system: Madin Darby canine kidney (MDCK) cells
[17] = test system: African green monkey kidney (BSC-1) cells; details: Measles Virus test
[18] = test system: African green monkey kidney (BSC-1) cells
[19] = test system: Human lung carcinoma (A549) cells; details: Adenovirus Type 5 test
[20] = test system: Human lung carcinoma (A549) cells
[21] = test system: African green monkey kidney (MA-104) cells; details: for CPI Inhibition IC50 (cytotoxic): Parainfluenza Type 3 Virus test; for CPE Inhibition IC50 (cytotoxic): Respiratory Syncytial Virus test
[22] = test system: HFF Cells
[23] = test system: HCMV; assay: HCMV CPE inhibition in HFF cells; details: HFF Cells
[24] = test system: HSV-1; assay: HSV-1 CPE inhibition in HFF cells; details: HFF Cells
[25] = test system: HSV-2; assay: HSV-2 CPE inhibition in HFF cells; details: HFF Cells
[26] = test system: VZV; assay: VZV plaque reduction assay in HFF cells; details: for VZV Plaque Reduction EC50 / VZV SI (CC50/EC50): HFF Cells
[27] = test system: Hepatitis B Virus (HBV); assay: Inhibition of HBV replication in 2.2.15 cells, extracellular (virion) HBV DNA; details: for SI (CC50/EC90), HBV Virion: selective index;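 on all read-outs here: extracellular virion HBV DNA in culture medium measured by slot blot hybridization with a 32P-labeled HBV probe, quantified against HBV DNA standards, after 9 days of daily dosing, compared with day 0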
Description: Test compounds were added daily for a nine continuous day period; the culture medium was collected and stored for analysis of extracellular (virion) HBV DNA after 0, 3, 6, and 9 days of treatment. The treated cells were lysed 24 hours following day 9 of treatment for the analysis of intracellular HBV genomic forms. The overall levels of HBV DNA (both extracellular and intracellular DNA) and the relative rate of HBV replication (intracellular DNA) were analyzed quantitatively. The analysis was performed using blot hybridization techniques and [^32P]-labeled HBV-specific probes. The HBV DNA levels were measured by comparison to known amounts of HBV DNA standards applied to every nitrocellulose membrane (gel or slot blot). An AMBIS beta scanner, which measures the radioactive decay of the hybridized probes directly from the nitrocellulose membranes, was used for the quantitative analysis. Standard curves, generated by multiple analyses, were used to correlate CPM measurements made by the beta scanner with relative levels of target HBV DNA. The levels of HBV virion DNA released into the culture medium were analyzed by a slot blot hybridization procedure. HBV DNA levels were then compared to those at day 0 to determine the effect of the test compound. A known positive drug was evaluated in parallel with test compounds in each test.
Determination of therapeutic concentrations (EC50 and EC90) and toxicity concentrations (IC50) were determined as previously described (90). Stock solutions of text drugs were prepared in DMSO. Culture medium was changed daily and analyzed for extracellular HBV DNA after nine days of continuous drug exposure. Extracellular HBV DNA was extracted from the culture media and analyzed by a slot blot hydridization technique, using a ^32P-labeled Eco RI HBV DNA fragment, as previously described (91), and quantitated via comparison to HBV standards on a nitrocellulose filter, using an AMBIS beta scanner. Toxicity was determined by measuring inhibition of neutral red dye uptake. […] Effective concentration values for individual agents are the mean of six cultures per concentration point. Toxicity values are the mean of three cultures per concentration point.

[28] = test system: Influenza B Panama/45/90; assay: microbe, parasite or virus in culture; format: cell-based

## CC(=O)Oc1ccc([C@@H]2CC(=O)c3c(cc(OC(C)=O)c(-c4c(OC(C)=O)cc(OC(C)=O)c5c4O[C@H](c4ccc(OC(C)=O)cc4)CC5=O)c3OC(C)=O)O2)cc1 [Rhusflavanone hexaacetate (10), rhusflavanone hexaacetate]
[1]
  CPE Inhibition EC50: >10 µg/mL
[2]
  Neutral Red EC50: 5.6 µg/mL
[3]
  CPE Inhibition EC50: >10 µg/mL
[4]
  Neutral Red EC50: 5.4 µg/mL
[5]
  CPE Inhibition EC50: >10 µg/mL
[6]
  CPI Inhibition EC50: ˜3 ug/ml
[7]
  Neutral Red EC50: <10 µg/mL
[8]
  CPE Inhibition EC50: >10 µg/mL
[9]
  Neutral Red EC50: 19 µg/mL
[10]
  CPI Inhibition EC50: >10 µg/mL
[11]
  Neutral Red EC50: 32 µg/mL
[12]
  CPE Inhibition EC50: >10 µg/mL
[13]
  Neutral Red EC50: 19 µg/mL
[14]
  Anti-HIV-1 RT % Inhibition at 200 μg/ml: 0.00%
  Anti-HIV-1 RT IC50: Inactive
[15]
  CPE Inhibition IC50 (50% cell inhibitory (cytotoxic) concentration): 7.2 µg/mL
[15]; Influenza A (H3N2) test
  CPE Inhibition IC50 (cytotoxic): 5.6 µg/mL
[15]; Influenza B test
  CPE Inhibition IC50 (cytotoxic): 4.2 µg/mL
[16]; Influenza A (H1N1) test
  Neutral Red IC50 (cytotoxic): 5.7 µg/mL
[16]; Influenza A (H3N2) test
  Neutral Red IC50 (cytotoxic): 5.3 µg/mL
[17]
  CPI Inhibition IC50 (cytotoxic): <4 µg/mL
[18]
  Neutral Red IC50 (cytotoxic): <11 µg/mL
[19]
  CPE Inhibition IC50 (cytotoxic): 22 µg/mL
[20]
  Neutral Red IC50 (cytotoxic): 26 µg/mL
[21]
  CPI Inhibition IC50 (cytotoxic): 22 µg/mL
  CPE Inhibition IC50 (cytotoxic): 13 µg/mL
[22]
  HCMV CPE Inhibition CC50: 13.4 µg/mL
  HSV-1 CPE Inhibition CC50: 18.5 µg/mL
  HSV-2 CPE Inhibition CC50: 18.5 µg/mL
  VZV Plaque Reduction CC50: 46.7 µg/mL
[23]
  HCMV CPE Inhibition EC50: >4.0 µg/mL
  HCMV SI (CC50/EC50): <3.3
[24]
  HSV-1 CPE Inhibition EC50: >4.0 µg/mL
  HSV-1 SI (CC50/EC50): <4.6
[25]
  HSV-2 CPE Inhibition EC50: >4.0 µg/mL
  HSV-2 SI (CC50/EC50): <4.6
[26]
  VZV Plaque Reduction EC50: 11.3 µg/mL
  VZV SI (CC50/EC50): 4.1
[27]; 2.2.15 cells
  anti-HBV activity (in words): moderate anti-HBV activity
[27]
  SI (CC50/EC90), HBV Virion: 2.8

## CC(=O)Oc1ccc([C@@H]2CC(=O)c3c(cc(OC(C)=O)c(-c4c(OC(C)=O)cc5c(c4OC(C)=O)C(=O)C[C@@H](c4ccc(OC(C)=O)cc4)O5)c3OC(C)=O)O2)cc1 [Succedaneaflavanone hexaacetate (12), succedaneaflavanone hexaacetate]
[1]
  CPE Inhibition EC50: 5.6 µg/mL
[2]
  Neutral Red EC50: 7.4 µg/mL
[3]
  CPE Inhibition EC50: 8.8 µg/mL
[4]
  Neutral Red EC50: 5.6 µg/mL
[5]
  CPE Inhibition EC50: 5.4 µg/mL
[28]
  Neutral Red EC50: 5.9 µg/mL
[6]
  CPI Inhibition EC50: ˜3.2 ug/ml
[7]
  Neutral Red EC50: <2 µg/mL
[8]
  CPE Inhibition EC50: 20 µg/mL
[9]
  Neutral Red EC50: 6 µg/mL
[10]
  CPI Inhibition EC50: >10 µg/mL
[11]
  Neutral Red EC50: >32 µg/mL
[12]
  CPE Inhibition EC50: >3 µg/mL
[13]
  Neutral Red EC50: 6 µg/mL
[14]
  Anti-HIV-1 RT % Inhibition at 200 μg/ml: 0.00%
  Anti-HIV-1 RT IC50: Inactive
[15]
  CPE Inhibition IC50 (50% cell inhibitory (cytotoxic) concentration): 8.2 µg/mL
[15]; Influenza A (H3N2) test
  CPE Inhibition IC50 (cytotoxic): 12 µg/mL
[15]; Influenza B test
  CPE Inhibition IC50 (cytotoxic): 12 µg/mL
[16]; Influenza A (H1N1) test
  Neutral Red IC50 (cytotoxic): 7.4 µg/mL
[16]; Influenza A (H3N2) test
  Neutral Red IC50 (cytotoxic): 5.6 µg/mL
[16]; Influenza B test
  Neutral Red IC50 (cytotoxic): 5.9 µg/mL
[17]
  CPI Inhibition IC50 (cytotoxic): <4 µg/mL
[18]
  Neutral Red IC50 (cytotoxic): <200 µg/mL
[19]
  CPE Inhibition IC50 (cytotoxic): 19 µg/mL
[20]
  Neutral Red IC50 (cytotoxic): 6 µg/mL
[21]
  CPI Inhibition IC50 (cytotoxic): ˜14 ug/ml
  CPE Inhibition IC50 (cytotoxic): 4 µg/mL
[22]
  HCMV CPE Inhibition CC50: 14.4 µg/mL
  HSV-1 CPE Inhibition CC50: 17.7 µg/mL
  HSV-2 CPE Inhibition CC50: 17.7 µg/mL
  VZV Plaque Reduction CC50: 68.0 µg/mL
[23]
  HCMV CPE Inhibition EC50: >4.0 µg/mL
  HCMV SI (CC50/EC50): <3.5
[24]
  HSV-1 CPE Inhibition EC50: >4 µg/mL
  HSV-1 SI (CC50/EC50): <4.4
[25]
  HSV-2 CPE Inhibition EC50: >4.0 µg/mL
  HSV-2 SI (CC50/EC50): <4.4
[26]
  activity against VZV (in words): moderately active
  VZV Plaque Reduction EC50: 7.1 µg/mL
  VZV SI (CC50/EC50): 9.6
[27]; 2.2.15 cells
  anti-HBV activity (in words): moderate anti-HBV activity
[27]; read-out: EC50 (50% effective dose), HBV Virion, 2.2.15 cells, extracellular (virion) HBV DNA, 9 days treatment
  pEC50: 5.46
[27]; read-out: EC90 (90% effective dose), HBV Virion, 2.2.15 cells, extracellular (virion) HBV DNA, 9 days treatment
  EC90: 128 µM
[27]
  SI (CC50/EC90), HBV Virion: 1.9
